Results: PMC10609273, “Radiosynthesis and Early Evaluation of a Positron Emission Tomography Imaging Probe [^18F]AGAL Targeting Alpha-Galactosidase A Enzyme for Fabry Disease” (Molecules, 2023)
Like-named read-outs stand apart in the source and are kept apart here.

Legend:
[1] = target: 167 protein targets (human and rodent recombinant receptors and binding sites); test: Eurofins SpectrumScreen selectivity panel
Protocol: The AGAL molecule had ≥50% inhibition of specific binding or activity with IC50 values > 10 µM for a range of human and rodent recombinant receptors and binding sites (e.g., calcium and potassium channels and various subtypes of adrenergic, bombesin, calcitonin, serotonin, acetylcholine, histamine, and glutamate receptors or transporters).
The AGAL molecule was tested for estimated inhibition potency (IC50) and/or inhibition constants (Ki) on 167 protein targets (Eurofins SpectrumScreen).

[2] = Bidirectional permeability in Caco-2 cells; type: in vitro ADME; settings: human, Caco-2, 5 µM, alone
Protocol: (§1) The Caco-2 cell culture and bidirectional permeability assays used in the study were adapted from previous studies at Takeda. Briefly, Caco-2 cells were obtained from American Type Culture Collection (ATCC) (Manassas, VA, USA) and were cultured in 175 cm^2 tissue culture T-flasks (Corning Life Sciences, Corning, NY, USA). For bidirectional permeability assays, cells were plated onto Costar 24-well culture plates (0.33 cm^2/well, […] (Corning Life Sciences, Corning, NY, USA) by adding 1 × 10^5 cells suspended in 0.2 mL of culture medium (Dulbecco’s modified Eagle’s medium [DMEM] with 0.1 mM non-essential amino acids, 2 mM L-glutamine, 4.5 g/L glucose, and 10% fetal bovine serum [FBS]) to the upper chamber of each well of the 24-well transwell plate. Cell-free culture medium (40 mL) was added to the lower chamber reservoir (Corning Life Sciences, Corning, NY, USA). The transwell plates were then incubated at 37 °C in an atmosphere of 5% CO2 for 25 days to ensure complete enterocyte-like differentiation of the cells, and the culture medium was changed every three to four days during the incubation period. Cell monolayers with transepithelial electrical resistance (TEER) values > 250 ohms × cm^2 were used for the bidirectional permeability assays.
(§2) All chemicals and reagents including control compounds were purchased from commercial sources such as Sigma-Aldrich or synthesized in house (pevonedistat and LY335979). Bidirectional transport studies were performed at 37 °C. Before each experiment, the confluent cell monolayers on transwell inserts were washed and equilibrated for 30 min with transport media (Hank’s Balanced Salt Solution [HBSS] containing 25 mM 4-(2-hydroxyethyl)-1-piperazineethanesulfonic acid [HEPES] and 10 mM glucose, pH 7.4 or 6.5). The bidirectional permeability of 5 µM of the cyclohexane derivative was assessed alone or in the presence of 5 µM LY335979, 5 µM K0143, or 10 µM Elacridar to inhibit P-gp, BCRP, and both efflux transporters, respectively. Additionally, the bi-directional permeability of 5 µM solutions of nadolol (low permeable control marker), minoxidil (high permeable marker), propranolol (high permeable marker), and pevonedistat (efflux transporter control) was also assessed. The experiment was initiated by adding a solution containing the test compounds and LY335979 to either the apical (for apical-to-basolateral [A-to-B] transport) or basolateral (for basolateral-to-apical [B-to-A] transport) compartment. Lucifer yellow (50 µM) was added to each donor chamber in the experiment to serve as a paracellular transport control and to monitor cell monolayer integrity. The apical volume was 0.2 mL and the basolateral volume was 1.0 mL. Bovine serum albumin (BSA, Sigma Aldrich) (5%) was added to the transport media on the receiver side to prevent non-specific binding of the test compound to the polystyrene well. After the addition of test compound into the donor side, […] of the receiving solution were withdrawn from the receiver side at 30 and 60 min. A […] of fresh transport media was immediately added to the receiver side at 30 and 60 min. The samples were placed into 96-well black plates (PerkinElmer Life Sciences, Boston, MA, USA) for fluorescence measurement (excitation at 450 nm and emission at 535 nm). After this measurement, the amounts of cyclohexane derivative and control compounds in each sample were quantified with liquid chromatography–mass spectrometry (LC–MS). The time course of drug transported across cell monolayers was analyzed to determine the time and rate of steady-state flux. The transport rate (total amount of drug present in the receiver chamber per unit time), Papp, and efflux ratio were calculated as described in Equations (4) and (5). […]

BCRP = test: Bidirectional permeability in Caco-2 cells; type: in vitro ADME; settings: human
Protocol: as §1, §2

Caco-2 cells = test: Bidirectional permeability in Caco-2 cells; type: in vitro ADME
Protocol: as §1, §2

P-gp and BCRP = test: Bidirectional permeability in Caco-2 cells; type: in vitro ADME; settings: human, Caco-2, with Elacridar (GF918) 10 µM, 5 µM, + 10 µM Elacridar (GF918) (dual inhibitor of P-gp and BCRP)
Protocol: as §1, §2

P-gp = test: Bidirectional permeability in Caco-2 cells; type: in vitro ADME; settings: human, Caco-2, with LY335979 5 µM
Protocol: as §1, §2

[3] = read-out: Ratio (B/A), efflux ratio
[4] = Caco-2, with KO143 5 µM, 5 µM, + 5 µM KO143 (BCRP inhibitor)
[5] = 5 µM, + 5 µM LY335979 (P-gp inhibitor)

**Q.** Which IC50 ([1]; range of human and rodent recombinant receptors and binding sites, read-out: IC50 values for off-target receptors and binding sites) does the source give for `O=C(CCCCCCCn1cc(CCCF)nn1)N1[C@@H]2[C@H](O)[C@@H](O)[C@@H](O)[C@@H](CO)[C@@H]21` [AGAL] here?
**A.** > 10 µM

**Q.** And the “inhibition of specific binding or activity” value ([1]; selectivity panel, >160 proteins)?
**A.** ≥ 50%

**Q.** And the Papp A→B at 60 min, 5 µM [2]?
**A.** 0.11 ×10⁻⁶ cm/s

**Q.** And the Papp B→A at 60 min, 5 µM [2]?
**A.** 1.36 ×10⁻⁶ cm/s

**Q.** And the efflux ratio at 60 min, 5 µM [2, 3]?
**A.** 12

**Q.** What about the efflux ratio at 60 min, 5 µM (BCRP; Caco-2, with K0143 5 µM, by BCRP inhibitor K0143, read-out: reduction of the efflux ratio) of the same molecule?
**A.** 1.4

**Q.** And the Papp A→B at 60 min, 5 µM (BCRP; [4])?
**A.** 0.15 ×10⁻⁶ cm/s

**Q.** What about the Papp B→A at 60 min, 5 µM (BCRP; [4]) of the same molecule?
**A.** 1.31 ×10⁻⁶ cm/s

**Q.** What about the efflux ratio at 60 min, 5 µM (BCRP; Caco-2, with KO143 5 µM, 5 µM, + 5 µM KO143 (BCRP inhibitor), read-out: Ratio (B/A), efflux ratio) of the same molecule?
**A.** 8.7

**Q.** What about the “reduction of the efflux ratio” value (Caco-2 cells; by LY335979) of the same molecule?
**A.** 67%

**Q.** And the “reduction of the efflux ratio” value (Caco-2 cells; by elacridar)?
**A.** 76%

**Q.** And the Papp A→B at 60 min, 5 µM (P-gp and BCRP)?
**A.** 0.25 ×10⁻⁶ cm/s

**Q.** What about the Papp B→A at 60 min, 5 µM (P-gp and BCRP) of the same molecule?
**A.** 0.74 ×10⁻⁶ cm/s

**Q.** And the efflux ratio at 60 min, 5 µM (P-gp and BCRP; [3])?
**A.** 2.9

**Q.** And the efflux ratio at 60 min, 5 µM (P-gp; by P-gp inhibitor LY335979, read-out: reduction of the efflux ratio)?
**A.** 3

**Q.** What about the Papp A→B at 60 min, 5 µM (P-gp; [5]) of the same molecule?
**A.** 0.25 ×10⁻⁶ cm/s

**Q.** And the Papp B→A at 60 min, 5 µM (P-gp; [5])?
**A.** 0.95 ×10⁻⁶ cm/s

**Q.** And the efflux ratio at 60 min, 5 µM (P-gp; 5 µM, + 5 µM LY335979 (P-gp inhibitor), read-out: Ratio (B/A), efflux ratio)?
**A.** 3.9
